Tests used:
Design in all cases: dose 100 mg/kg, route oral
Conditions in all cases: in vivo, po
Rattus norvegicus [1] = assay: Tested for gastric antisecretory activity in the pyloric ligated rat by observing the pH of gastric contents at dose 100 mg/kg orally 1 hr prior to the 5-h pyloric ligation period; pH < 2 is inactive; assay type: ADME, organism-based, Stomach
Rattus norvegicus [2] = assay: Tested for gastric antisecretory activity in the pyloric ligated rat by observing the pH of gastric contents at dose 100 mg/kg orally 1 hr prior to the 5-h pyloric ligation period; assay type: ADME, organism-based, Stomach
Rattus norvegicus [3] = assay: Tested for gastric antisecretory activity in the pyloric ligated rat by observing the pH of gastric contents at dose 100 mg/kg orally 1 h prior to the 5-h pyloric ligation period; Inactive; assay type: organism-based, Stomach

CC1(C)CC(C)(C(N)=O)c2cn(-c3ccccc3)cc21 (stereo not drawn)
pH (Rattus norvegicus [1]): 1.1

CC1(C)CC(C)(C(N)=O)c2cn(-c3ccccc3)c(C=O)c21 (stereo not drawn)
pH (Rattus norvegicus [2]): 1.5

CC1(C)CC(C)(C(N)=O)c2c1c(C=O)n(-c1ccccc1)c2C=O (stereo not drawn)
pH (Rattus norvegicus [2]): 1.2

Cc1c2c(c(CO)n1-c1ccccc1)C(C)(C(N)=O)CC2(C)C (stereo not drawn)
pH (Rattus norvegicus [2]): 7

Cc1c2c(cn1-c1ccccc1)C(C)(C)CC2(C)C(N)=O (stereo not drawn)
pH (Rattus norvegicus [3]): 1.2

Cc1c2c(c(C=O)n1-c1ccccc1)C(C)(C)CC2(C)C(N)=O (stereo not drawn)
pH (Rattus norvegicus [2]): 1.5

CCc1c2c(c(CC)n1-c1ccccc1)C(C)(C(N)=O)CC2(C)C (stereo not drawn)
pH (Rattus norvegicus [1]): 1.1

Cc1c2c(c(C)n1-c1ccccc1)C(C)(C(N)=O)CC2(C)C (stereo not drawn)
pH (Rattus norvegicus [2]): 6.2

Cc1c2c(c(C=O)n1-c1ccccc1)C(C)(C(N)=O)CC2(C)C (stereo not drawn)
pH (Rattus norvegicus [2]): 1.2

Cc1c2c(c(CO)n1-c1ccccc1)C(C)(C)CC2(C)C(N)=O (stereo not drawn)
pH (Rattus norvegicus [2]): 5.7

Cc1c2c(cn1-c1ccccc1)C(C)(C(N)=O)CC2(C)C (stereo not drawn)
pH (Rattus norvegicus [2]): 2.6

CC1(C)CC(C)(C(N)=O)c2cn(-c3ccccc3)c(CO)c21 (stereo not drawn)
pH (Rattus norvegicus [2]): 6.4

CC1(C)CC(C)(C(N)=O)c2c1c(CO)n(-c1ccccc1)c2CO (stereo not drawn)
pH (Rattus norvegicus [1]): 1.2

Reference: ChEMBL document CHEMBL1121499, “Experimental antiulcer drugs.4. 1,3-Disubstituted 2,4,5,6-tetrahydro-4,6,6 -trimethyl-2-phenylcyclopenta[c]pyrrole-4-carboxamides” (J Med Chem, 1980)
